From patent publication US9420813B2, “Sweetener” (AJINOMOTO CO., INC., priority 2007, dated 2016)
*1 amine or outer side, *2 acyl side, *3 side chain or, on linkers, in order; H or OH if unused. Where no end group is shown, it is not given here. [ ]: non-standard residue; d: D form. γGlu = O=C(O)[C@H](CCC(=O)[*:2])N[*:1]

Experiments:
[1] = Quantitative sensory evaluation, body taste and bitterness in drinkable yogurt containing high intensity sweetener (Example 5); design: species or system human; conditions: for Bitterness: control 0, <0 improved; for Bitterness / Body taste: n=12; for Body taste: control 0, >0 improved; for improvement of the body taste (conclusion in words): drinkable yogurt with APM, Table 20
Description: The quantitative sensory evaluation test was performed as follows. As for a drinkable yogurt standard solution, the following compounds were used. The following standard solutions have been adjusted so they each have almost the same degree of sweetness.
To a drinkable yogurt containing each of the sweeteners, γ-Glu-Val-Gly or cinacalcet was added and mixed at concentrations 0.0001 to 1 g/dl, and then each degree of the improvement of the body taste and the improvement of the bitterness on the sweet taste was measured.
(§1) When a mixture is more acidic than the standard control solution, the pH of the sample was adjusted with NaOH to achieve a range of pH±0.2 with respect to the pH of the standard solution before use.
(§2) The sensory evaluation for the improvement of the body taste was performed with n=12 on the basis of the following criteria: a control (obtained with adding distilled water only and without adding the sample) was defined as 0, and by using the control as a standard, the following were defined: weak: −2 points; slightly weak: −1 point; slightly strong: 1 point, and strong: 2 points. A higher score than 0 means that the sample has a body taste-improving effect.
as §2, with “On the other hand, the” for “The”, “bitterness” for “body taste”, “lower” for “higher”, “improves the bitterness.” for “has a body taste-improving effect.”

[2] = Quantitative sensory evaluation, improvement of body taste and bitterness of combined high-intensity sweeteners (Examples 2 and 4); design: species or system human; conditions: for Bitterness: control 0, <0 improved; for Bitterness / Body taste: n=12; for Body taste: control 0, >0 improved; for improvement of the body taste (conclusion in words): combined sweetener solutions, Tables 9 to 12 and 16 to 19
Description: The quantitative sensory evaluation test was performed as follows. As for a combination standard solution of each sweeteners, the following compounds were used. The following standard solutions have been adjusted so they each have almost the same degree of sweetness.
ii) APM (0.02 g/dl)+Ace-K (0.005 g/dl) [APM:Ace-K=8:2 as a ratio of degrees of sweetness]
iii) Sucralose (0.0058 g/dl)+Ace-K (0.0075 g/dl) [sucralose:Ace-K=7:3 as a ratio of degrees of sweetness]
iv) APM (0.0125 g/dl)+sucralose (0.0042 g/dl) [APM:sucralose=1:1 as a ratio of degrees of sweetness]
v) APM (0.0125 g/dl)+sucralose (0.0021 g/dl)+Ace-K (0.0063 g/dl) [APM:sucralose:Ace-K=2:1:1 as a ratio of degrees of sweetness]
To distilled water containing each of the sweeteners, γ-Glu-Cys-Gly (glutathione), γ-Glu-Val-Gly or γ-Glu-Abu-Gly was added and mixed at concentrations of 0.0001 to 1 g/dl, and then the degree of the improvement of the body taste and the improvement of the bitterness on the sweet taste was measured. The addition effect of the peptides on each of the high-intensity sweeteners was evaluated with reference to sucrose.
When a mixture is more acidic than the standard control solution, the pH of the mixture was adjusted with NaOH to achieve a range of pH±0.2 with respect to the pH of the standard solution before use.
The sensory evaluation for the improvement of the body taste was performed with n=12 on the basis of the following criteria: a control (obtained by adding distilled water only and without adding glutathione and/or the peptide) was defined as 0, and by using the control as a standard, the follow were defined: weak: −2 points; slightly weak: −1 point; slightly strong: 1 point, and strong: 2 points. A higher score than 0 means that the sample has a body taste-improving effect.
(§3) Alternatively, the sensory evaluation for the improvement of the bitterness was performed with n=12 on the basis of the following criteria: a control (obtained by adding distilled water only and without adding glutathione and/or the peptide) was defined as 0, and by using the control as a standard, the following were defined: weak: −2 points; slightly weak: −1 point; slightly strong: 1 point, and strong: 2 points. A lower score than 0 means that the sample improves the bitterness.
The quantitative sensory evaluation test was performed as follows. As for combination standard solution of each sweeteners, the following compound was used. The following standard solutions have been adjusted so they each have almost the same degree of sweetness.
To distilled water containing each sweetener mentioned above, γ-Glu-Val-Gly or cinacalcet was added and mixed at concentrations of 0.0001 to 1 g/dl, and then each degree of the improvement of the body taste and the improvement of the bitterness on the sweet taste was measured. The addition effect of the sample on each of the high intensity sweeteners was evaluated with reference to sucrose.
as §1
as §2, with “improves the” for “has a”, “taste.” for “taste-improving effect.”
as §3, with “(obtained with” for “(obtained by”, “adding” for “adding glutathione and/or”, “the sample)” for “the peptide)”, “points. […]” for “points. A lower score than 0 means that the sample improves the bitterness.”

[3] = Quantitative sensory evaluation test, intensity of kokumi-imparting activity; design: key to Kokumi intensity, initial and middle taste / Kokumi intensity, aftertaste / Taste profile: *: Unmeasurable: kokumi-imparting activity is too strong to measure by sensory evaluation
Description: The quantitative sensory evaluation test was performed as follows. […] When a sample is acidic when dissolved, the pH was adjusted with NaOH to pH 6.8 to 7.2 before use. Because it is known that glutathione can impart kokumi to a food, glutathione was used as a comparative control. The test was performed with n=3 based on the following sensory evaluation scores: control was given 0 points, glutathione addition was given 3 points. […] It should be noted that the term “initial and middle taste” is a collective term of the initial taste and middle taste.
The quantitative sensory evaluation test was performed as follows. […] When a sample is acidic when dissolved, the pH of the sample was adjusted with NaOH to pH 6.8 to 7.2 before use. The test was performed with n=5 based on the following sensory evaluation scores: control was given 0 point and glutathione addition was given 3 points.
The quantitative sensory evaluation test was performed as follows. […] As for a sample which is acidic when the sample is dissolved, pH of the sample was adjusted with NaOH to pH 6.8 to 7.2 before use. The test was performed with n=12 based on the following sensory evaluation scores: control: 0 point and glutathione addition: 3 points.

[4] = drinkable yogurt with APM 0.025 g/dl, sample 0.0001 g/dl
[5] = drinkable yogurt with APM 0.025 g/dl, sample 0.001 g/dl
[6] = APM 0.0125 + sucralose 0.0021 + Ace-K 0.0063 g/dl (2:1:1), sample 0.0001 g/dl
[7] = APM 0.0125 + sucralose 0.0021 + Ace-K 0.0063 g/dl (2:1:1), sample 0.001 g/dl
[8] = APM 0.0125 g/dl + sucralose 0.0042 g/dl (1:1), sample 0.0001 g/dl
[9] = APM 0.0125 g/dl + sucralose 0.0042 g/dl (1:1), sample 0.001 g/dl
[10] = APM 0.02 g/dl + Ace-K 0.005 g/dl (8:2), sample 0.0001 g/dl
[11] = APM 0.02 g/dl + Ace-K 0.005 g/dl (8:2), sample 0.001 g/dl
[12] = APM:Ace-K = 8:2, sample 0.0001 g/dl
[13] = sucralose 0.0058 g/dl + Ace-K 0.0075 g/dl (7:3), sample 0.0001 g/dl
[14] = sucralose 0.0058 g/dl + Ace-K 0.0075 g/dl (7:3), sample 0.001 g/dl
[15] = sample 0.01 g/dl, control 0, glutathione 3 points, n=5
[16] = sample 0.01 g/dl, control 0, glutathione 3 points, n=12

Compound	Bitterness [1, 4]	Body taste [1, 4]	Bitterness [1, 5]	Body taste [1, 5]	improvement of the body taste (conclusion in words) [1]	Bitterness [2, 6]	Body taste [2, 6]	Bitterness [2, 7]	Body taste [2, 7]	Bitterness [2, 8]	Body taste [2, 8]	Bitterness [2, 9]	Body taste [2, 9]	Bitterness [2, 10]	Body taste [2, 10]	Bitterness [2, 11]	Body taste [2, 11]	Taste profile [2, 12]	improvement of the body taste (conclusion in words) [2]	Bitterness [2, 13]	also measured
C[C@@H](NCCCc1cccc(C(F)(F)F)c1)c1cccc2ccccc12 [Cinacalcet, (R)—N-(3-(3-(trifluoromethyl)phenyl)propyl)-1-(1-naphthyl)ethylamine, reference compound]	−0.2 points	0.5 points	−0.1 points	1.6 points	improves the body taste at almost the same concentration	−0.2 points	0.5 points	−0.4 points	1.1 points	−0.2 points	0.5 points	−0.2 points	1.1 points	−0.1 points	0.5 points	−0.3 points	1.1 points	Sweet taste with growth is enhanced in middle	improves the body taste at almost the same concentration	−0.1 points	Taste profile ([2]; APM:Ace-K = 8:2, sample 0.001 g/dl): Sweet taste with growth is enhanced in middle; Taste profile ([2]; APM:sucralose:Ace-K = 2:1:1, sample 0.0001 g/dl): Harmony and richness are present in middle; Taste profile ([2]; APM:sucralose:Ace-K = 2:1:1, sample 0.001 g/dl): Harmony and richness are present in middle; Body taste [2, 13]: 0.8 points; Bitterness [2, 14]: −0.3 points; Body taste [2, 14]: 1.5 points
[γGlu]-Val-Gly	−0.2 points	0.5 points	−0.5 points	1.4 points	improves the body taste at almost the same concentration	−0.3 points	0.6 points	−0.7 points	1.3 points	−0.2 points	0.6 points	−0.4 points	1.3 points	−0.3 points	0.6 points	−0.7 points	1.3 points	Sweet taste with growth is enhanced in middle	improves the body taste at almost the same concentration	−0.3 points	Kokumi intensity, aftertaste [3, 15]: 3.0 points; Kokumi intensity, initial and middle taste [3, 15]: 3.0 points; Kokumi intensity, aftertaste [3, 16]: 3.0 points; Kokumi intensity, initial and middle taste [3, 16]: 3.0 points; Kokumi intensity, aftertaste ([3]; sample 0.1 g/dl, n=5, symbol): *; Kokumi intensity, initial and middle taste ([3]; sample 0.1 g/dl, n=5, symbol): *; Taste profile ([3]; sample 0.1 g/dl, n=5, symbol): *; Taste profile [1, 5]: Growth is present in middle taste. Sweet taste; Body taste [2, 13]: 0.7 points; Bitterness [2, 14]: −0.7 points; Body taste [2, 14]: 1.3 points
